Assay results reported in ChEMBL document CHEMBL5550210, “Discovery of Novel α,β-Unsaturated Amide Derivatives as Candidate Antifungals to Overcome Fungal Resistance” (J Med Chem, 2024).
≈ marks a conversion by molar mass, not a printed value.

Experiments:
Format in all cases: functional
Candida albicans [1] = assay: Antifungal activity against Candida albicans CPCC400616 assessed as inhibition of fungal growth by CLSI protocol based microdilution method
Candida albicans [2] = assay: Antifungal activity against Candida albicans SC5314 assessed as inhibition of fungal growth by CLSI protocol based microdilution method
Candida parapsilosis = assay: Antifungal activity against Candida parapsilosis ATCC 22019 assessed as inhibition of fungal growth by CLSI protocol based microdilution method; settings: Lodderomyces parapsilosis
Nakaseomyces glabratus = assay: Antifungal activity against Candida glabrata assessed as inhibition of fungal growth by CLSI protocol based microdilution method
Pichia kudriavzevii = assay: Antifungal activity against Candida krusei AS 2.1045 assessed as inhibition of fungal growth by CLSI protocol based microdilution method
Candida tropicalis = assay: Antifungal activity against Candida tropicalis CGMCC 2.3739 assessed as inhibition of fungal growth by CLSI protocol based microdilution method
Cryptococcus neoformans = assay: Antifungal activity against Cryptococcus neoformans CGMCC2.3161 assessed as inhibition of fungal growth by CLSI protocol based microdilution method
Aspergillus fumigatus = assay: Antifungal activity against Aspergillus fumigatus CGMCC 3.7795 assessed as inhibition of fungal growth by CLSI protocol based microdilution method
Candida albicans [3] = assay: Antifungal activity against fluconazole-resistant Candida albicans CaR assessed as inhibition of fungal growth by CLSI based microdilution method
Candida albicans [4] = assay: Antifungal activity against fluconazole-resistant Candida albicans 17 assessed as inhibition of fungal growth by CLSI based microdilution method
Candida albicans [5] = assay: Antifungal activity against fluconazole-resistant Candida albicans 632 assessed as inhibition of fungal growth by CLSI based microdilution method
Candida albicans [6] = assay: Antifungal activity against fluconazole-resistant Candida albicans 904 assessed as inhibition of fungal growth by CLSI based microdilution method
Candida albicans [7] = assay: Antifungal activity against fluconazole-resistant Candida albicans 901 assessed as inhibition of fungal growth by CLSI based microdilution method

SMILES	MIC (Candida albicans [1]) [µg/mL]	MIC (Candida albicans [2]) [µg/mL]	MIC (Candida parapsilosis) [µg/mL]	MIC (Nakaseomyces glabratus) [µg/mL]	MIC (Pichia kudriavzevii) [µg/mL]	MIC (Candida tropicalis) [µg/mL]	MIC (Cryptococcus neoformans) [µg/mL]	MIC (Aspergillus fumigatus) [µg/mL]	MIC (Candida albicans [3]) [µg/mL]	MIC (Candida albicans [4]) [µg/mL]	MIC (Candida albicans [5]) [µg/mL]	MIC (Candida albicans [6]) [µg/mL]	MIC (Candida albicans [7]) [µg/mL]
O=C(/C=C/c1ccc(COC(Cn2ccnc2)c2ccc(Cl)cc2Cl)cc1)Nc1ccc(C(F)(F)F)cc1 (stereo not given)	0.03 (≈ 0.0535 µM)	0.03 (≈ 0.0535 µM)	0.5 (≈ 0.892 µM)	32 (≈ 57.1 µM)	64 (≈ 114 µM)	64 (≈ 114 µM)	2 (≈ 3.57 µM)	32 (≈ 57.1 µM)	64 (≈ 114 µM)	128 (≈ 228 µM)	2 (≈ 3.57 µM)	8 (≈ 14.3 µM)	16 (≈ 28.6 µM)
CC(C)NC(=O)/C=C/c1ccc(COC(Cn2ccnc2)c2ccc(Cl)cc2Cl)cc1 (stereo not given)	0.125 (≈ 0.273 µM)	0.5 (≈ 1.09 µM)	2 (≈ 4.36 µM)	4 (≈ 8.73 µM)	4 (≈ 8.73 µM)	4 (≈ 8.73 µM)	8 (≈ 17.5 µM)	2 (≈ 4.36 µM)	16 (≈ 34.9 µM)	16 (≈ 34.9 µM)	1 (≈ 2.18 µM)	8 (≈ 17.5 µM)	4 (≈ 8.73 µM)
O=C(/C=C/c1ccc(COC(Cn2ccnc2)c2ccc(Cl)cc2Cl)cc1)NC1CC1 (stereo not given)	0.25 (≈ 0.548 µM)	0.125 (≈ 0.274 µM)	1 (≈ 2.19 µM)	64 (≈ 140 µM)	64 (≈ 140 µM)	4 (≈ 8.76 µM)	16 (≈ 35.1 µM)	2 (≈ 4.38 µM)	128 (≈ 280 µM)	32 (≈ 70.1 µM)	1 (≈ 2.19 µM)	4 (≈ 8.76 µM)	2 (≈ 4.38 µM)
NC(=O)/C=C/c1ccc(COC(Cn2ccnc2)c2ccc(Cl)cc2Cl)cc1 (stereo not given)	2 (≈ 4.8 µM)	1 (≈ 2.4 µM)	4 (≈ 9.61 µM)	64 (≈ 154 µM)	64 (≈ 154 µM)	8 (≈ 19.2 µM)	16 (≈ 38.4 µM)	64 (≈ 154 µM)	128 (≈ 307 µM)	128 (≈ 307 µM)	16 (≈ 38.4 µM)	32 (≈ 76.9 µM)	32 (≈ 76.9 µM)
O=C(/C=C/c1ccc(COC(Cn2ccnc2)c2ccc(Cl)cc2Cl)cc1)Nc1cccc(Cl)c1 (stereo not given)	0.125 (≈ 0.237 µM)	0.06 (≈ 0.114 µM)	0.125 (≈ 0.237 µM)	64 (≈ 121 µM)	64 (≈ 121 µM)	32 (≈ 60.7 µM)	16 (≈ 30.4 µM)	16 (≈ 30.4 µM)	128 (≈ 243 µM)	128 (≈ 243 µM)	2 (≈ 3.8 µM)	2 (≈ 3.8 µM)	4 (≈ 7.59 µM)
